Reference: patent publication US6881741B2 (ViroChem Pharma Inc., priority 2001, dated 2005)

Biological target: recombinant HCV NS5B (HCV RNA-dependent RNA polymerase) (Hepatitis C virus genotype 1b, UniProt P26663)
Experiment: biochemical
Details: HCV polymerase activity, list of compounds of Example 27; read-out: IC50 (polymerase activity)

recombinant HCV NS5B (HCV RNA-dependent RNA polymerase), sequence (P26663 2420-3010 limits assumed): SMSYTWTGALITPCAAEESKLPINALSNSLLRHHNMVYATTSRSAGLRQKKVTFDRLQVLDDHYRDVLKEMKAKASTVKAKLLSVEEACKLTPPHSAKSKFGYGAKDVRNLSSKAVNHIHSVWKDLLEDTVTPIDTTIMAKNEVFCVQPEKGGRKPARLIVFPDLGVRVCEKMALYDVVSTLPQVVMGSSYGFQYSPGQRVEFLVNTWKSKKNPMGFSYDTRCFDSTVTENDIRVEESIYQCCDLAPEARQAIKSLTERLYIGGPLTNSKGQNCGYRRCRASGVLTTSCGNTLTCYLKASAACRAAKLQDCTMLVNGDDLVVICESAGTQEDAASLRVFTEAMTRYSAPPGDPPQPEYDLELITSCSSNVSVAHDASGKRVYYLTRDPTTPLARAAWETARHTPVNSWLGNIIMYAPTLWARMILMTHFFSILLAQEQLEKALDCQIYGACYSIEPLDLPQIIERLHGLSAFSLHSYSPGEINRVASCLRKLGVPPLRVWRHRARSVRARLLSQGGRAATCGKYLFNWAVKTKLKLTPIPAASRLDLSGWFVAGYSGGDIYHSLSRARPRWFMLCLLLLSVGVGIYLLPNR

Row | Compound | IC50 [µM]
1 | COc1cc(C)c(S(=O)(=O)N2CC(C)=CCC2C(=O)N(c2cc(-c3ccccc3)sc2C(=O)O)C(C)C)c(C)c1C (stereo not shown) [Compound 541, 3-(ISOPROPYL-[1-(4-METHOXY-2,3,6- TRIMETHYL-BENZENESULFONYL)-5- METHYL-1,2,3,6-TETRAHYDRO- PYRIDINE-2-CARBONYL]-AMINO)-5- PHENYL-THIOPHENE-2-CARBOXYLIC ACID] | 5 to 20
2 | COCC(=O)N(Cc1ccccc1)c1cc(-c2ccccc2)sc1C(=O)O [Compound 452, 3-[BENZYL-(2-METHOXY-ACETYL)- AMINO]-5-PHENYL-THIOPHENE-2- CARBOXYLIC ACID] | < 5
3 | CC(=O)N(Cc1cccc(Cl)c1)c1cc(-c2ccccc2)sc1C(=O)O [Compound 476, 3-[ACETYL-(3-CHLORO-BENZYL)-AMINO]- 5-PHENYL-THIOPHENE-2-CARBOXYLIC ACID] | > 20
4 | CC(=O)c1ccc(-c2cc(N(C(=O)C3CCC(C)CC3)C(C)C)c(C(=O)O)s2)cc1 (stereo not shown) [Compound 460, 5-(4-ACETYL-PHENYL)-3-[ISOPROPYL-(4- METHYL-CYCLOHEXANECARBONYL)- AMINO]-THIOPHENE-2-CARBOXYLIC ACID] | < 5
5 | O=C(NC1CCC(N(C(=O)c2ccc(Cl)cc2Cl)c2cc(-c3ccccc3)sc2C(=O)O)CC1)OCc1ccccc1 (stereo not shown) [Compound 515, 3-[(4-BENZYLOXYCARBONYLAMINO- CYCLOHEXYL)-(2,4-DICHLORO- BENZOYL)-AMINO]-5-PHENYL- THIOPHENE-2-CARBOXYLIC ACID] | < 5
6 | O=C(O)c1sc(-c2ccccc2)cc1N(Cc1ccc(Cl)cc1)C(=O)CC1CCCC1 [Compound 463, 3-[(4-CHLORO-BENZYL)-(2- CYCLOPENTYL-ACETYL)-AMINO]-5- PHENYL-THIOPHENE-2-CARBOXYLIC ACID] | < 5
7 | CC1CCC(C(=O)N(c2cc(-c3ccccc3)sc2C(=O)O)C(C)C)C(C)C1 (stereo not shown) [Compound 407, 3-[(2,4-DIMETHYL- CYCLOHEXANECARBONYL)-ISOPROPYL- AMINO]-5-PHENYL-THIOPHENE-2- CARBOXYLIC ACID] | < 5
8 | Cc1ccc(C(=O)N(c2cc(-c3ccccc3)sc2C(=O)O)C(C)C)c(/C=N/O)c1 [Compound 505, 3-{[2-(HYDROXYIMINO-METHYL)-4- METHYL-BENZOYL]-ISOPROPYL-AMINO)-5- PHENYL-THIOPHENE-2-CARBOXYLIC ACID] | 5 to 20
9 | CC(C)CC(=O)N(Cc1ccc(C(F)(F)F)cc1)c1cc(-c2ccccc2)sc1C(=O)O [Compound 412, 3-[(3-METHYL-BUTYRYL)-(4- TRIFLUOROMETHYL-BENZYL)-AMINO]-5- PHENYL-THIOPHENE-2-CARBOXYLIC ACID] | 5 to 20
10 | Cc1cccc(-c2cc(N(C(=O)c3ccc(C)cc3O)C(C)C)c(C(=O)O)s2)c1 [Compound 502, 3-[(2-HYDROXY-4-METHYL-BENZOYL)- ISOPROPYL-AMINO]-5-#M!-TOLYL- THIOPHENE-2-CARBOXYLIC ACID] | < 5
11 | CCCC(=O)N(Cc1cccc(C)c1)c1cc(-c2ccccc2)sc1C(=O)O [Compound 446, 3-[BUTYRYL-(3-METHYL-BENZYL)- AMINO]-5-PHENYL-THIOPHENE-2- CARBOXYLIC ACID] | 5 to 20
12 | O=C(O)c1sc(-c2ccccc2)cc1N(Cc1ccc(C(F)(F)F)cc1)C(=O)CC1CCCC1 [Compound 416, 3-[(2-CYCLOPENTYL-ACETYL)-(4- TRIFLUOROMETHYL-BENZYL)-AMINO]-5- PHENYL-THIOPHENE-2-CARBOXYLIC ACID] | 5 to 20
13 | N=C(N)N1CCC(N(C(=O)c2ccc(Cl)cc2Cl)c2cc(-c3ccccc3)sc2C(=O)O)CC1 [Compound 506, 3-[(1-CARBAMIMIDOYL-PIPERIDIN-4-YL)- (2,4-DICHLORO-BENZOYL)-AMINO]-5- PHENYL-THIOPHENE-2-CARBOXYLIC ACID] | < 5
14 | CCCC(=O)N(Cc1ccc(Cl)cc1)c1cc(-c2ccccc2)sc1C(=O)O [Compound 462, 3-[BUTYRYL-(4-CHLORO-BENZYL)- AMINO]-5-PHENYL-THIOPHENE-2- CARBOXYLIC ACID] | 5 to 20

Same assay, conditions: related polymerase activity (Example 27 list); read-out: IC50

Row | Compound | IC50 [µM]
15 | CCOC(=O)c1c(C)c(S(=O)(=O)Nc2cc(-c3ccccc3)sc2C(=O)O)c(-c2ccc(Cl)cc2)n1-c1ccccc1 [Compound 168, 4-(2-CARBOXY-5-PHENYL-THIOPHEN-3-YLSULFAMOYL)-5-(4-CHLORO-PHENYL)-3-METHYL-1-PHENYL-1H-PYRROLE-2-CARBOXYLIC ACID ETHYL ESTER] | 5 to 20
16 | Cc1ccccc1S(=O)(=O)Nc1cc(-c2ccc(Cl)cc2)sc1C(=O)O [Compound 68, 5-(4-CHLORO-PHENYL)-3-(TOLUENE-2-SULFONYLAMINO)-THIOPHENE-2-CARBOXYLIC ACID] | < 5
17 | CC(=O)Oc1cc(C)ccc1C(=O)N(c1cc(-c2ccccc2)sc1C(=O)O)C(C)C [Compound 377, 3-[(2-ACETOXY-4-METHYL-BENZOYL)- ISOPROPYL-AMINO]-5-PHENYL- THIOPHENE-2-CARBOXYLIC ACID] | 5 to 20
18 | C=CCN(C(=O)Cc1ccc(Cl)c(Cl)c1)c1cc(-c2ccccc2)sc1C(=O)O [Compound 350, 3-{ALLYL-[2-(3,4-DICHLORO-PHENYL)- ACETYL]-AMINO}-5-PHENYL-THIOPHENE- 2-CARBOXYLIC ACID] | 5 to 20
19 | Cc1ccccc1S(=O)(=O)Nc1cc(-c2ccccc2)sc1C(=O)O [Compound 62, 5-PHENYL-3-(TOLUENE-2-SULFONYLAMINO)-THIOPHENE-2-CARBOXYLIC ACID] | < 5
20 | CC(C)(C)N(C(=O)c1ccc(Cl)cc1Cl)c1cc(-c2ccccc2)sc1C(=O)O [Compound 327, 3-[#TERT!-BUTYL-(2,4-DICHLORO- BENZOYL)-AMINO]-5-PHENYL- THIOPHENE-2-CARBOXYLIC ACID] | < 5
21 | Cc1ccccc1C(=O)Nc1cc(-c2ccccc2)sc1C(=O)O [Compound 96, 3-(2-METHYL-BENZOYLAMINO)-5-PHENYL-THIOPHENE-2-CARBOXYLIC ACID] | 5 to 20
22 | CC1CCCC(C(=O)N(c2cc(-c3ccccc3)sc2C(=O)O)C(C)C)C1 (stereo not shown) [Compound 371, 3-[(3-METHYL- CYCLOHEXANECARBOXYL)-ISOPROPYL- AMINO]-5-PHENYL-THIOPHENE-2- CARBOXYLIC ACID] | > 20
23 | O=C(O)c1sc(-c2ccccc2)cc1NS(=O)(=O)c1ccc(C(F)(F)F)cc1 [Compound 52, 5-PHENYL-3-(4-TRIFLUOROMETHYL-BENZENESULFONYLAMINO)-THIOPHENE-2-CARBOXYLIC ACID] | < 5
24 | O=C(Nc1cc(-c2ccccc2)sc1C(=O)O)c1ccc(F)cc1F [Compound 77, 3-(2,4-DIFLUORO-BENZOYLAMINO)-5-PHENYL-THIOPHENE-2-CARBOXYLIC ACID] | > 20
25 | Cc1ccccc1S(=O)(=O)Nc1cc(-c2cccc(Cl)c2)sc1C(=O)O [Compound 65, 5-(3-CHLORO-PHENYL)-3-(TOLUENE-2-SULFONYLAMINO)-THIOPHENE-2-CARBOXYLIC ACID] | < 5
26 | CC(C)(C)c1ccc(S(=O)(=O)Nc2cc(-c3ccccc3)sc2C(=O)O)cc1 [Compound 32, 3-(4-TERT-BUTYL-BENZENESULFONYLAMINO)-5-PHENYL-THIOPHENE-2-CARBOXYLIC ACID] | 5 to 20
27 | CN(C(=O)c1ccccc1Cl)c1cc(-c2ccccc2)sc1C(=O)O [Compound 95, 3-[(2-CHLORO-BENZOYL)-METHYL-AMINO]-5-PHENYL-THIOPHENE-2-CARBOXYLIC ACID] | 5 to 20
28 | O=C(O)c1sc(-c2ccccc2)cc1NS(=O)(=O)c1ccccc1F [Compound 30, 3-(2-FLUORO-BENZENESULFONYLAMINO)-5-PHENYL-THIOPHENE-2-CARBOXYLIC ACID] | 5 to 20
29 | CCCCc1ccc(-c2cc(NS(=O)(=O)c3ccccc3C)c(C(=O)O)s2)cc1 [Compound 231, 5-(4-BUTYL-PHENYL)-3-(TOLUENE-2-SULFONYLAMINO)-THIOPHENE-2-CARBOXYLIC ACID] | < 5
30 | O=C(O)c1sc(-c2ccccc2)cc1NS(=O)(=O)c1ccc(F)cc1F [Compound 27, 3-(2,4-DIFLUORO-BENZENESULFONYLAMINO)-5-PHENYL-THIOPHENE-2-CARBOXYLIC ACID] | < 5
31 | O=C(O)c1sc(-c2ccc(F)cc2)cc1NS(=O)(=O)c1ccccc1 [Compound 135, 3-BENZENESULFONYLAMINO-5-(4-FLUORO-PHENYL)-THIOPHENE-2-CARBOXYLIC ACID] | < 5
32 | C=Cc1cc(NS(=O)(=O)c2ccccc2C)c(C(=O)O)s1 [Compound 71, 3-(TOLUENE-2-SULFONYLAMINO)-5-VINYL-THIOPHENE-2-CARBOXYLIC ACID] | 5 to 20
33 | CC(C)c1ccc(S(=O)(=O)Nc2cc(-c3ccccc3)sc2C(=O)O)cc1 [Compound 43, 3-(4-ISOPROPYL-BENZENESULFONYLAMINO)-5-PHENYL-THIOPHENE-2-CARBOXYLIC ACID] | 5 to 20
34 | C=CCN(C(=O)Cc1ccc2ccccc2c1)c1cc(-c2ccccc2)sc1C(=O)O [Compound 347, 3-[ALLYL-(2-NAPHTHALEN-2-YL-ACETYL)- AMINO]-5-PHENYL-THIOPHENE-2- CARBOXYLIC ACID] | > 20
35 | O=C(O)c1sc(-c2ccccc2)cc1N(Cc1ccc(-c2ccc(F)c(Cl)c2)s1)C(=O)c1ccc(Cl)cc1Cl [Compound 111, 3-[[5-(3-CHLORO-4-FLUORO-PHENYL)-THIOPHEN-2-YLMETHYL]-(2,4-DICHLORO-BENZOYL)-AMINO]-5-PHENYL-THIOPHENE-2-CARBOXYLIC ACID] | < 5
36 | C=CCN(C(=O)CCCCC)c1cc(-c2ccccc2)sc1C(=O)O [Compound 397, 3-(ALLYL-HEXANOYL-AMINO)-5-PHENYL- THIOPHENE-2-CARBOXYLIC ACID] | 5 to 20
37 | O=C(O)c1sc(-c2ccccc2)cc1NS(=O)(=O)c1ccccc1Cl [Compound 29, 3-(2-CHLORO-BENZENESULFONYLAMINO)-5-PHENYL-THIOPHENE-2-CARBOXYLIC ACID] | 5 to 20
38 | CCOC(=O)c1cccc(-c2cc(NS(=O)(=O)c3ccccc3C)c(C(=O)O)s2)c1 [Compound 121, 5-(3-ETHOXYCARBONYL-PHENYL)-3-(TOLUENE-2-SULFONYLAMINO)-THIOPHENE-2-CARBOXYLIC ACID] | 5 to 20
39 | Cc1ccc(C(=O)N(c2cc(-c3ccc(F)cc3)sc2C(=O)O)C(C)C)cc1 [Compound 283, 5-(4-FLUORO-PHENYL)-3-[ISOPROPYL-(4-METHYL-BENZOYL)-AMINO]-THIOPHENE-2-CARBOXYLIC ACID] | < 5
40 | Cc1ccccc1S(=O)(=O)Nc1cc(-c2cccc(F)c2)sc1C(=O)O [Compound 67, 5-(3-FLUORO-PHENYL)-3-(TOLUENE-2-SULFONYLAMINO)-THIOPHENE-2-CARBOXYLIC ACID] | < 5
